From patent US20030158188A1, “Fused azabicyclic compounds that inhibit vanilloid receptor subtype 1 (VR1) receptor” (priority 2002, published 2003)
Counter-ions that a name gives are not always drawn.

Compound | melting point [°C]
O=C(NCc1ccc(Br)cc1)Nc1cccc2[nH]ncc12 (as salt: hydrochloride) [Example 89, N-(4-bromobenzyl)-N′-1H-indazol-4-ylurea] | 126
O=C(NCc1ccc(Br)cc1)Nc1cccc2[nH]ccc12 [Example 78, N-(4-bromobenzyl)-N′-1H-indol-4-ylurea] | 198
O=C(NCc1ccc(Cl)c(Cl)c1)Nc1cccc2[nH]ccc12 [Example 79, N-(3,4-dichlorobenzyl)-N′-1H-indol-4-ylurea] | 201
O=C(NCc1ccc(C(F)(F)F)cc1)Nc1cccc2[nH]ccc12 [Example 80, N-1H-indol-4-yl-N′-[4-(trifluoromethyl)benzyl]urea] | 178
O=C(NCc1ccc(OC(F)(F)F)cc1)Nc1cccc2[nH]ccc12 [Example 81, N-1H-indol-4-yl-N′-[4-(trifluoromethoxy)benzyl]urea] | 177
O=C(NCc1ccc(C(F)(F)F)c(F)c1)Nc1cccc2[nH]ccc12 [Example 82, N-[3-fluoro-4-(trifluoromethyl)benzyl]-N′-1H-indol-4-ylurea] | 198
O=C(NCc1ccc(Cl)c(C(F)(F)F)c1)Nc1cccc2[nH]ccc12 [Example 83, 1-(4-Chloro-3-trifluoromethyl-benzyl)-3-(1H-indol-4-yl)-urea] | 197
O=C(NCCc1ccc(Cl)cc1Cl)Nc1cccc2[nH]ccc12 [Example 85, N-[2-(2,4-dichlorophenyl)ethyl]-N′-1H-indol-4-ylurea] | 170
Cc1[nH]c2cccc(NC(=O)NCc3ccc(Br)cc3)c2c1C [Example 88, N-(4-bromobenzyl)-N′-(2,3-dimethyl-1H-indol-4-yl)urea] | 190
